Experimental data taken from US11472814B2, “Thienopyranones and furanopyranones as checkpoint inhibitors and modulators of anti-tumor immunity” (SignalRx Pharmaceuticals, Inc., priority 2017, dated 2022).

Legend:
[1] = system: Bone marrow derived macrophages (BMDMs), M2 gene expression; test: M2 marker mRNA in IL4 stimulated bone marrow derived macrophages (RT PCR); type: cell-based, murine; conditions: for Arg mRNA expression relative to control / Fizz1 mRNA expression relative to control / Mmr mRNA expression relative to control / Ym1 mRNA expression relative to control / Mgl mRNA expression relative to control: IL4 stimulated BMDMs, 24 hours, normalized to GAPDH, control = 1
Method: (§1) Bone marrow derived macrophages (MOs) (BMDMs) were exposed to IL4 or LPS for 24 hours to stimulate the M2 or M1 macrophage transition in presence of Compound 1 and the known SYK inhibitor Bay-61-3606 at 1 μM conc. M2 markers Mmr, Ym1, Fizz1 and Mgl mRNA and M1 markers I11, 116 and Tnfa mRNA was quantitated by RT PCR. Values are mean±SEM (n=3-4). Expression of gene of interest is normalized to GAPDH. […] The data provide direct evidence that Compound 1 can block the immunosuppressive macrophage M2 gene expression and activate the M1 gene expression and therefore activate antitumor innate immune cell differentiation in vitro.
(§2) Relative mRNA expression of IL4 or LPS polarized genes in murine bone marrow derived macrophages (BMDMs) treated with various concentrations of inhibitors in vitro. Conclusion: Compound 3 suppressed in vitro macrophage specific immunosuppressive M2 gene expression markers and augmented macrophage stimulatory immune response M1 genes respectively.

SYK = target: T1, SYK (Homo sapiens, UniProt P43405); test: SYK inhibition IC50 (Reaction Biology Corp.); type: biochemical; conditions: 10-point curve; read-out: SYK IC50
T1 construct: purchased Reaction Biology Corp., Malvern, Pa; (contract assay service)
Source text: (§3) The inhibitory activity of a compound of the invention against PI3K and/or BRD4 and/or SYK and/or CDK4/6 can be readily determined using methods known to the skilled artisan, or by commercial vendors offering such services. […] In vivo, PI3K inhibition can be determined from target tissue biopsies by standard tissue processing to disrupt cells and then performing Western Blot analysis to determine the presence or absence of pAKT (substrate of PI3K) relative to a control sample. The activity of a compound of the invention as an inhibitor of a bromodomain-containing protein, such as a BET protein, such as BRD2, BRD3, BRD4, and/or BRDT, or an isoform or mutant thereof, may be determined in vitro, in vivo, or in a cell line. In vitro assays include assays that determine inhibition of bromodomain-containing proteins. Alternatively, inhibitor binding may be determined by running a competition experiment where a provided compound is incubated with a bromodomain-containing protein, such as a BET protein bound to known ligands, labeled or unlabeled. For example, bromodomain inhibition can be determined in vitro using Alpha Screen Technology (http://www.reactionbiologv.com/webapps/site/NewsPDFs/Bromodomain%20Assay %20Platform %20for %20Drug %20Screening %20and %20Discovery.pdf). In vivo bromodomain inhibition can be determined indirectly by evaluating the amount of protein present of proteins whose genes' transcription is influenced or controlled by the bromodomain protein, for example, the MYCN protein transcription is controlled by BRD4 (J. E. Delmore et al., Cell 2011, 146, 904-917; A. Puissant, Cancer Discov. 2013, 3, 308-323). Bromodomain inhibition may also be predicted by in silico modeling as described below in the Examples. Additionally, the company Promega offers a SYK luminescent assay to determine a compound's ability to inhibit the SYK protein (https://www.promega.com/-/media/files/resources/protocols/kinase-enzyme-appnotes/syk-kinase-assay-protocol.pdf?la=en).
Compounds of the invention were characterized for their ability to inhibit target proteins using third party vendors offering such services. PI3K alpha, gamma, and delta inhibition activity was determined by Thermo Fisher Scientific-Biosciences Life Sciences Solutions, Madison, Wis. The bromodomain protein inhibition (binding domain 1 and 2 of BRD4) as well as SYK inhibition was determined at Reaction Biology Corp., Malvern, Pa. Additional information on each of the assays performed and services provided is available at each company's website on the internet (https://www.thermofisher.com/us/en/home/life-science.html and http://www.reactionbiology.com/webapps/site, respectively). The IC50 data (shown below in Table 5) was calculated from a 10-point curve and is expressed in nanomolar concentration (nM) rounded off to the nearest whole number. Where multiple values were obtained the range from lowest to highest values is presented. NI=no inhibition detected up to 50 uM or IC50 not reached at 50 uM.

[2] = system: Bone marrow derived macrophages (BMDMs), M2 gene expression; test: M2 marker mRNA in IL4 stimulated bone marrow derived macrophages (RT PCR); type: cell-based, murine; conditions: 24 hours, normalized to GAPDH, control = 1
[3] = system: Bone marrow derived macrophages (BMDMs), M1 gene expression; test: M1 marker mRNA in LPS stimulated bone marrow derived macrophages (RT PCR); type: cell-based, murine; conditions: for Il1 mRNA expression relative to control / Il6 mRNA expression relative to control / Tnfa mRNA expression relative to control: LPS stimulated BMDMs, 24 hours, normalized to GAPDH, control = 1
Source text: as §1, with “Bone marrow derived macrophages (MOs) (BMDMs) were exposed to IL4 or LPS for 24 hours to stimulate the M2 or M1 macrophage transition in presence of Compound 1 and the known SYK inhibitor Bay-61-3606 at 1 μM conc.” left out
as §2

PI3K α = target: T2, PI3K α (Homo sapiens, UniProt P42336); test: PI3K alpha inhibition IC50 (Thermo Fisher); type: biochemical; conditions: 10-point curve
T2 construct: purchased Thermo Fisher Scientific-Biosciences Life Sciences Solutions, Madison, Wis; (contract assay service)
T2 sequence (P42336 whole entry): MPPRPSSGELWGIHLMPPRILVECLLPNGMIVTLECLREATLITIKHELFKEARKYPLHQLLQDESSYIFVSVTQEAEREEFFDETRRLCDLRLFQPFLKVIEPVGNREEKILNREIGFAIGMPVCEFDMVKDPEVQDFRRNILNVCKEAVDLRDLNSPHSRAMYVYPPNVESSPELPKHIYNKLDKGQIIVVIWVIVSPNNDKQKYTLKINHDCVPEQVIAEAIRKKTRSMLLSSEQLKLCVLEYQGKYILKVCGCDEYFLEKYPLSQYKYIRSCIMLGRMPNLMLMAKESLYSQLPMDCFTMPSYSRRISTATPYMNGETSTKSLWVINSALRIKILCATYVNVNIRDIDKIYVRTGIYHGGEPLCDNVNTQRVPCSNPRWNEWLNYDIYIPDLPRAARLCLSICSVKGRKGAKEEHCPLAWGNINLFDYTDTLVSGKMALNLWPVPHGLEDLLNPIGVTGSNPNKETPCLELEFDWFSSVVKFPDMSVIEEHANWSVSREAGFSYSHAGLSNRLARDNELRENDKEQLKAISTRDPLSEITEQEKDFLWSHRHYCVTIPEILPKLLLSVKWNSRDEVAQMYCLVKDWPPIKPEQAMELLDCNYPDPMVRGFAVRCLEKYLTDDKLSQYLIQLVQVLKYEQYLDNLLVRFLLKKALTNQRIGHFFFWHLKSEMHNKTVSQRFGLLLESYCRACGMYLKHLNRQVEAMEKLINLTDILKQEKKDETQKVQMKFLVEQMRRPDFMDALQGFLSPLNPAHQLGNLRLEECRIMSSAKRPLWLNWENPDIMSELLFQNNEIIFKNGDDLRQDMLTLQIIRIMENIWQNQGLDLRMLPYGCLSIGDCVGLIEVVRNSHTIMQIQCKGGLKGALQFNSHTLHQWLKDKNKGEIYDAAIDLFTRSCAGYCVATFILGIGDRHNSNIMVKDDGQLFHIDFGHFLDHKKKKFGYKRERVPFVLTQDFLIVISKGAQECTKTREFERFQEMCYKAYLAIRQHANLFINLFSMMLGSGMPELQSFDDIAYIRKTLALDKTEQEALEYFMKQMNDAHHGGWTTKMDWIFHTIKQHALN
T2 sequence (P27986 whole entry partner): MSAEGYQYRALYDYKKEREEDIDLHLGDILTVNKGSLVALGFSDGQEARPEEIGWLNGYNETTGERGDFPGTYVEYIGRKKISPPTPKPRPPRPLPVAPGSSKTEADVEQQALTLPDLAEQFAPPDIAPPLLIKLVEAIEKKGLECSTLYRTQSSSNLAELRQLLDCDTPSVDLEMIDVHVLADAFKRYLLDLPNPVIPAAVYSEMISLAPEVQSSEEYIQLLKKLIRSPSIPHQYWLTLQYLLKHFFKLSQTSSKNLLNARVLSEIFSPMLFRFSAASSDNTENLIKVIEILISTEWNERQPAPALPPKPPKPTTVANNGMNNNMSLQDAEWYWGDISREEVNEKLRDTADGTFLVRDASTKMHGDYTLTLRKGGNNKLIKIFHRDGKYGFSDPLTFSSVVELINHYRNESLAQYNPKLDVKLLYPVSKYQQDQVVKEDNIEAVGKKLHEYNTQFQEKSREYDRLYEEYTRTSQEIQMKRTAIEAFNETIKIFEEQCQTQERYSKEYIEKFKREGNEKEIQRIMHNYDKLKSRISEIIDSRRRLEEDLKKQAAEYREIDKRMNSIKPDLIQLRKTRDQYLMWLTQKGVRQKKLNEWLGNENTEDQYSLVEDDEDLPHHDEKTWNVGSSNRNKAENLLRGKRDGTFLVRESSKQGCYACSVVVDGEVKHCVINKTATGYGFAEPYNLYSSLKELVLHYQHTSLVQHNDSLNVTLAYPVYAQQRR
Source text: as §3
(§4) Compounds of the invention were characterized for their ability to inhibit target proteins using third party vendors offering such services. PI3K alpha, gamma, and delta inhibition activity was determined by Thermo Fisher Scientific-Biosciences Life Sciences Solutions, Madison, Wis. The bromodomain protein inhibition (binding domain 1 and 2 of BRD4) as well as SYK inhibition was determined at Reaction Biology Corp., Malvern, Pa. […] The IC50 data (shown below in Table 5) was calculated from a 10-point curve and is expressed in nanomolar concentration (nM) rounded off to the nearest whole number. […]

BRD4-1 = target: T3, BRD4-1 (Homo sapiens, UniProt O60885); test: Bromodomain protein inhibition IC50, binding domain 1 of BRD4 (Reaction Biology Corp.); conditions: 10-point curve
T3 construct: purchased Reaction Biology Corp., Malvern, Pa; (contract assay service)
Source text: as §3, §4

PI3K γ = target: T4, PI3K γ (Homo sapiens, UniProt P48736); test: PI3K gamma inhibition IC50 (Thermo Fisher); type: biochemical; conditions: 10-point curve
T4 construct: purchased Thermo Fisher Scientific-Biosciences Life Sciences Solutions, Madison, Wis; (contract assay service)
T4 sequence (P48736 whole entry): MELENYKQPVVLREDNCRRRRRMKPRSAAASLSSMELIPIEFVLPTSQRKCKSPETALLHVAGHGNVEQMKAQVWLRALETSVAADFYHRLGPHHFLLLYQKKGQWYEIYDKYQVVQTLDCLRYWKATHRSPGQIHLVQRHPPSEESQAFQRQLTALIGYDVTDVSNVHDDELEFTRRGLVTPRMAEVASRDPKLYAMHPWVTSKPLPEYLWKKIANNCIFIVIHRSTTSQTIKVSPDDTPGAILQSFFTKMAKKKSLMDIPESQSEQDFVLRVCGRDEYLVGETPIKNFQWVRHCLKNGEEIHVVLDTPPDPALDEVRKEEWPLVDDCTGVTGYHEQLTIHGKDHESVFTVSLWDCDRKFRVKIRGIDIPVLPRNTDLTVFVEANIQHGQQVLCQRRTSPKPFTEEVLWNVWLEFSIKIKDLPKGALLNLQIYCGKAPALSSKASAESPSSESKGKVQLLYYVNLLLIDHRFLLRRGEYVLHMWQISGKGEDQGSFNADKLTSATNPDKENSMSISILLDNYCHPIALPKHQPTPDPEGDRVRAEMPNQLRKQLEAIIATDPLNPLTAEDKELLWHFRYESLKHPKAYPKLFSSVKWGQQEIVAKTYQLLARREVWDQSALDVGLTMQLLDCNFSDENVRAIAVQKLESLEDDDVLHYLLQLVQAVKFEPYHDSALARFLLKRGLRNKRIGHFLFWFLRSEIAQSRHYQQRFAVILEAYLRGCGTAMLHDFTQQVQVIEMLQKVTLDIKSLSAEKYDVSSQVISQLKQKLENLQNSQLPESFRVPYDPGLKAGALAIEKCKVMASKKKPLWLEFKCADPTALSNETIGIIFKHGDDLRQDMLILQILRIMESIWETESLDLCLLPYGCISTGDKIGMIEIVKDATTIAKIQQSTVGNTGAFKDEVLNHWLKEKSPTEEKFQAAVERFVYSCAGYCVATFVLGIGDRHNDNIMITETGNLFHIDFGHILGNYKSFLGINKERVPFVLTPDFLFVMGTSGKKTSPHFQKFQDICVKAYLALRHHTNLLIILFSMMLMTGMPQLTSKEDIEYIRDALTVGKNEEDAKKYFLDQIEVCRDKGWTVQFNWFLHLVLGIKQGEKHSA
Source text: as §3, §4

BRD4-2 = target: T5, BRD4-2 (Homo sapiens, UniProt O60885); test: Bromodomain protein inhibition IC50, binding domain 2 of BRD4 (Reaction Biology Corp.); conditions: 10-point curve
T5 construct: purchased Reaction Biology Corp., Malvern, Pa; (contract assay service)
Source text: as §3, §4

IC50 (SYK): < 100 nM
IC50 (PI3K α): 100 to 1000 nM
IC50 (BRD4-1): > 50 µM
IC50 (PI3K γ): 5 to 50 µM
IC50 (BRD4-2): > 50 µM
Structure (SMILES): Cc1nn(-c2ccnc(Nc3ccc(-c4csc5c(=O)cc(N6CCOCC6)oc45)cc3)n2)cc1CN1CC(O)C1 [Compound 1, 3-[p-(4-{4-[(3-Hydroxy-1-azetidinyl)methyl]-3-methyl-1H-pyrazol-1-yl}-2-pyrimidinylamino)phenyl]-5-morpholino-4-oxa-1-thia-7-indenone]
Arg mRNA expression relative to control ([1]; 200 nM): 0.5
Fizz1 mRNA expression relative to control ([1]; 200 nM): 0.44
Mmr mRNA expression relative to control ([1]; 200 nM): 0.41
Ym1 mRNA expression relative to control ([1]; 200 nM): 0.37
Arg mRNA expression relative to control ([1]; 500 nM): 0.45
Fizz1 mRNA expression relative to control ([1]; 500 nM): 0.31
Mgl mRNA expression relative to control ([1]; 500 nM): 0.41
Mmr mRNA expression relative to control ([1]; 500 nM): 0.18
Ym1 mRNA expression relative to control ([1]; 500 nM): 0.21
Arg mRNA expression relative to control ([1]; 1 μM): 0.39
Fizz1 mRNA expression relative to control ([1]; 1 μM): 0.11
Mgl mRNA expression relative to control ([1]; 1 μM): 0.30
Mmr mRNA expression relative to control ([1]; 1 μM): 0.19
Ym1 mRNA expression relative to control ([1]; 1 μM): 0.10
Arg mRNA expression relative to control ([1]; 2 μM): 0.14
Mgl mRNA expression relative to control ([1]; 2 μM): 0.40
Mmr mRNA expression relative to control ([1]; 2 μM): 0.14
Ym1 mRNA expression relative to control ([1]; 2 μM): 0.11
Arg mRNA expression relative to control ([1]; 5 μM): 0.22
Fizz1 mRNA expression relative to control ([1]; 5 μM): 0.06
Mgl mRNA expression relative to control ([1]; 5 μM): 0.24
Mmr mRNA expression relative to control ([1]; 5 μM): 0.18
Ym1 mRNA expression relative to control ([1]; 5 μM): 0.04
immunosuppressive macrophage M2 gene expression ([1]; BMDMs, IL4 24 hours, 1 μM): blocks immunosuppressive M2 gene expression
Mgl mRNA expression relative to control ([2]; 200 nM): 0.31
Fizz1 mRNA expression relative to control ([2]; 2 μM): 0.22
Il1 mRNA expression relative to control ([3]; 200 nM): 1.1
Il6 mRNA expression relative to control ([3]; 200 nM): 1.7
Tnfa mRNA expression relative to control ([3]; 200 nM): 0.88
Il1 mRNA expression relative to control ([3]; 500 nM): 1.1
Il6 mRNA expression relative to control ([3]; 500 nM): 1.29
Tnfa mRNA expression relative to control ([3]; 500 nM): 1.23
Il1 mRNA expression relative to control ([3]; 1 μM): 1.2
Il6 mRNA expression relative to control ([3]; 1 μM): 3.15
Tnfa mRNA expression relative to control ([3]; 1 μM): 1.70
Il1 mRNA expression relative to control ([3]; 2 μM): 1.25
Il6 mRNA expression relative to control ([3]; 2 μM): 1.59
Tnfa mRNA expression relative to control ([3]; 2 μM): 1.99
Il1 mRNA expression relative to control ([3]; 5 μM): 0.69
Il6 mRNA expression relative to control ([3]; 5 μM): 0.97
Tnfa mRNA expression relative to control ([3]; 5 μM): 0.90
M1 inflammatory gene expression ([3]; BMDMs, LPS 24 hours, 1 μM): augments M1 inflammatory gene expression
